Reference: patent US10703757B2, “Compounds and methods for CDK8 modulation and indications therefor” (Plexxikon Inc., priority 2016, dated 2020)
pIC50: −log10 of the molar value.

Key:
[1] = tested on: CDK8 (phosphorylation of STAT1 at serine 727 in A549 cells); assay: Cell based Phospho-STAT1 assay (IFNγ-stimulated A549 cells, AlphaLISA); details: Homo sapiens, A549, A549 cells, phospho-STAT1 after IFNγ stimulation
Method in brief: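 A549 cells given serial compound dilutions for 1 h at 37 °C, then stimulated with IFNγ at 10 ng/mL final for 30 min. Lysate STAT1 Ser727 phosphorylation measured by AlphaLISA; % inhibition vs stimulated/unstimulated DMSO controls, IC50 by nonlinear regression.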

[2] = tested on: CDK8 (TCF/LEF luciferase reporter in HCT116 cells); assay: Cell based TCF/LEF reporter assay (HCT116+TCF/LEF luciferase); details: Homo sapiens, HCT-116, 24 h
Method in brief: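 HCT116 cells stably carrying a TCF/LEF-luciferase reporter (endogenous mutant β-catenin), seeded overnight, then exposed to serial compound dilutions for 24 h at 37 °C. Luminescence normalized to CellTiter-Fluor viability signal. % inhibition relative to DMSO and 10 uM CCT251545 controls, with IC50 from nonlinear regression.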

| Compound | pIC50 [1] | pIC50 [2] |
| --- | --- | --- |
| CC(C)(C)COc1ccc(-c2cnn3cccc(N4CCC(C#N)CC4)c23)cc1 [Compound P-0266, 1-(3-(4-(neopentyloxy)phenyl)pyrazolo[1,5-a]pyridin-4-yl)piperidine-4-carbonitrile] | 5.00 to 6.00 | 5.00 to 6.00 |
| N#CC1CC=C(c2c(-c3ccc(-n4ccnn4)cc3)cnc3[nH]ccc23)CC1 (stereo not drawn) [Compound P-0201, 4-(5-(4-(1H-1,2,3-triazol-1-yl)phenyl)-1H-pyrrolo[2,3-b]pyridin-4-yl)cyclohex-3-ene-1-carbonitrile] | 6.00 to 7.00 | 7.00 to 10.00 |
| N#CC1CCC(c2nccn3ncc(-c4ccc(-c5cnn(CC6CC6)c5)cc4)c23)CC1 (stereo not drawn) [Compound P-0020, (1s,4s)-4-(3-(4-(1-(cyclopropylmethyl)-1H-pyrazol-4-yl)phenyl)pyrazolo[1,5-a]pyrazin-4-yl)cyclohexane-1-carbonitrile] | 7.00 to 10.00 | 7.00 to 10.00 |
| N#CC1CC=C(c2cccn3ncc(-c4cc5ccccc5s4)c23)CC1 (stereo not drawn) [Compound P-0121, 4-(3-(benzo[b]thiophen-2-yl)pyrazolo[1,5-a]pyridin-4-yl)cyclohex-3-ene-1-carbonitrile] | 7.00 to 10.00 | 7.00 to 10.00 |
| N#CC1CCN(c2c(-c3ccc(OCCOC4CCOCC4)cc3)cnc3[nH]ccc23)CC1 [Compound P-0171] | 7.00 to 10.00 | 7.00 to 10.00 |
| Cn1cc(-c2ccc(-c3cnn4cccc(C#CC(C)(C)O)c34)cc2)cn1 [Compound P-0429, 2-methyl-4-[3-[4-(1-methylpyrazol-4-yl)phenyl]pyrazolo[1,5-a]pyridin-4-yl]but-3-yn-2-ol] | 7.00 to 10.00 | 7.00 to 10.00 |
| CC(C)(O)Cn1ncc2cc(-c3cnc4[nH]ccc4c3C3=CCC(C#N)CC3)ccc21 (stereo not drawn) [Compound P-0113] | 7.00 to 10.00 | 7.00 to 10.00 |
| Cn1cc(C#Cc2cnc3cccc(N4CCC5(CC4)CC(=O)NC5=O)n23)cn1 [Compound P-0238, 8-(3-((1-methyl-1H-pyrazol-4-yl)ethynyl)imidazo[1,2-a]pyridin-5-yl)-2,8-diazaspiro[4.5]decane-1,3-dione] | 7.00 to 10.00 | 7.00 to 10.00 |
| CC(C)(C#Cc1cccn2ncc(-c3ccc(-c4cnn(CC5CC5)c4)cc3)c12)C(N)=O [Compound P-0463, 4-(3-(4-(1-(cyclopropylmethyl)-1H-pyrazol-4-yl)phenyl)pyrazolo[1,5-a]pyridin-4-yl)-2,2-dimethylbut-3-ynamide] | 7.00 to 10.00 | 7.00 to 10.00 |
| N#CC1CCC(c2nccn3ncc(-c4ccc(-c5cnn(CC6(C#N)CC6)c5)cc4)c23)CC1 (stereo not drawn) [Compound P-0050, (1s,4s)-4-(3-(4-(1-((1-cyanocyclopropyl)methyl)-1H-pyrazol-4-yl)phenyl)pyrazolo[1,5-a]pyrazin-4-yl)cyclohexane-1-carbonitrile] | 7.00 to 10.00 | 7.00 to 10.00 |
| N#CC1CCN(c2cccn3ncc(-c4ccc(C(=O)N5CCCC5)cc4)c23)CC1 [Compound P-0257, 1-(3-(4-(pyrrolidine-1-carbonyl)phenyl)pyrazolo[1,5-a]pyridin-4-yl)piperidine-4-carbonitrile] | 6.00 to 7.00 | 6.00 to 7.00 |
| N#CC1CCN(c2cccn3ncc(-c4ccc(-c5cnn(C(F)F)c5)cc4)c23)CC1 [Compound P-0415, 1-(3-(4-(1-(difluoromethyl)-1H-pyrazol-4-yl)phenyl)pyrazolo[1,5-a]pyridin-4-yl)piperidine-4-carbonitrile] | 7.00 to 10.00 | 7.00 to 10.00 |
| Cc1ccncc1-c1ccc(-c2cnn3cccc(C#CC(C)(C)O)c23)cc1 [Compound P-0233, 2-methyl-4-(3-(4-(4-methylpyridin-3-yl)phenyl)pyrazolo[1,5-a]pyridin-4-yl)but-3-yl-2-ol] | 5.00 to 6.00 | 6.00 to 7.00 |
| CC(=O)N1CCC(Oc2cccc3ncc(-c4ccc(-c5cnn(C(F)F)c5)cc4)n23)CC1 [Compound P-0304, 1-[4-[3-[4-[1-(difluoromethyl)pyrazol-4-yl]phenyl]imidazo[1,2-a]pyridin-5-yl]oxy-1-piperidyl]ethanone] | 5.00 to 6.00 | 5.00 to 6.00 |
| CN1CCN(C(=O)c2ccc(-c3cnc4[nH]ccc4c3C3=CCC(C#N)CC3)cc2)CC1 (stereo not drawn) [Compound P-0331, 4-(5-(4-(4-methylpiperazine-1-carbonyl)phenyl)-1H-pyrrolo[2,3-b]pyridin-4-yl)cyclohex-3-ene-1-carbonitrile] | 6.00 to 7.00 | 6.00 to 7.00 |
| N#CC1CCC(c2cccn3ncc(-c4ccc5cc(C(=O)O)ccc5c4)c23)CC1 (stereo not drawn) [Compound P-0193, 6-(4-(4-cyanocyclohexyl)pyrazolo[1,5-a]pyridin-3-yl)-2-naphthoic acid] | 6.00 to 7.00 | 5.00 to 6.00 |
| Cn1cc(-c2ccc(-c3cnn4cccc(C5=CCC(C#N)CC5)c34)cc2)cn1 (stereo not drawn) [Compound P-0452, 4-(3-(4-(1-methyl-1H-pyrazol-4-yl)phenyl)pyrazolo[1,5-a]pyridin-4-yl)cyclohex-3-ene-1-carbonitrile] | 7.00 to 10.00 | 7.00 to 10.00 |
| Cn1cc(-c2ccc(-c3cnn4cccc(N5CCC6(CCNC6=O)CC5)c34)cc2)cn1 [Compound P-0170, 8-(3-(4-(1-methyl-1H-pyrazol-4-yl)phenyl)pyrazolo[1,5-a]pyridin-4-yl)-2,8-diazaspiro[4.5]decan-1-one] | 7.00 to 10.00 | 7.00 to 10.00 |
| COc1ccc(-c2cnn3ccnc(C4=CCC(C#N)CC4)c23)cc1F (stereo not drawn) [Compound P-0104, 4-(3-(3-fluoro-4-methoxyphenyl)pyrazolo[1,5-a]pyrazin-4-yl)cyclohex-3-ene-1-carbonitrile] | 7.00 to 10.00 | 7.00 to 10.00 |

Results, then the molecule that gave them:

| pIC50 [1] | pIC50 [2] | Compound |
| --- | --- | --- |
| 7.00 to 10.00 | 7.00 to 10.00 | N#CC1CCN(c2c(-c3ccc(-c4cnn(CC(F)(F)F)c4)cc3)cnc3[nH]ccc23)CC1 [Compound P-0174, 1-(5-(4-(1-(2,2,2-trifluoroethyl)-1H-pyrazol-4-yl)phenyl)-1H-pyrrolo[2,3-b]pyridin-4-yl)piperidine-4-carbonitrile] |
| 7.00 to 10.00 | 7.00 to 10.00 | Cn1cc(-c2ccc(-c3cnn4ccnc(C5CCC(C#N)CC5)c34)cc2)cn1 (stereo not drawn) [Compound P-0059, (1s,4s)-4-(3-(4-(1-methyl-1H-pyrazol-4-yl)phenyl)pyrazolo[1,5-a]pyrazin-4-yl)cyclohexane-1-carbonitrile] |
| 7.00 to 10.00 | 7.00 to 10.00 | COc1ccc2cc(-c3cnc4[nH]ccc4c3C3=CCC(C#N)CC3)ccc2n1 (stereo not drawn) [Compound P-0190, 4-(5-(2-methoxyquinolin-6-yl)-1H-pyrrolo[2,3-b]pyridin-4-yl)cyclohex-3-ene-1-carbonitrile] |
| 7.00 to 10.00 | 7.00 to 10.00 | Cc1nnc(-c2ccc(-c3cnn4cccc(C5CCC(C#N)CC5)c34)cc2)o1 (stereo not drawn) [Compound P-0140, 4-(3-(4-(5-methyl-1,3,4-oxadiazol-2-yl)phenyl)pyrazolo[1,5-a]pyridin-4-yl)cyclohexane-1-carbonitrile] |
| 7.00 to 10.00 | 7.00 to 10.00 | Cc1ccc2cc(-c3cnn4ccnc(C5=CCC(C(N)=O)CC5)c34)ccc2n1 (stereo not drawn) [Compound P-0153, 4-(3-(2-methylquinolin-6-yl)pyrazolo[1,5-a]pyrazin-4-yl)cyclohex-3-ene-1-carboxamide] |
| 7.00 to 10.00 | 7.00 to 10.00 | COc1ccc(-c2cnn3ccnc(C4=CCC(C#N)CC4)c23)cc1Cl (stereo not drawn) [Compound P-0041, 4-(3-(3-chloro-4-methoxyphenyl)pyrazolo[1,5-a]pyrazin-4-yl)cyclohex-3-ene-1-carbonitrile] |
| 7.00 to 10.00 | 7.00 to 10.00 | Cc1ccc2cc(-c3cnn4ccnc(C5CCC(C#N)CC5)c34)ccc2n1 (stereo not drawn) [Compound P-0187, 4-(3-(2-methylquinolin-6-yl)pyrazolo[1,5-a]pyrazin-4-yl)cyclohexane-1-carbonitrile] |
| 7.00 to 10.00 | 7.00 to 10.00 | Cc1c(-c2ccc(-c3cnn4cccc(C#CC(C)(C)O)c34)cc2)cnn1C [Compound P-0230, 4-(3-(4-(1,5-dimethyl-1H-pyrazol-4-yl)phenyl)pyrazolo[1,5-a]pyridin-4-yl)-2-methylbut-3-yn-2-ol] |
| 7.00 to 10.00 | 7.00 to 10.00 | Cc1ccc2cc(-c3cnn4ccnc(C#CC(C)(C)C(N)=O)c34)ccc2n1 [Compound P-0118, 2,2-dimethyl-4-(3-(2-methylquinolin-6-yl)pyrazolo[1,5-a]pyrazin-4-yl)but-3-ynamide] |
| 7.00 to 10.00 | 7.00 to 10.00 | CC(C)(O)C#Cc1cccn2ncc(-c3ccc(-c4cccnc4)cc3)c12 [Compound P-0237, 2-methyl-4-(3-(4-(pyridin-3-yl)phenyl)pyrazolo[1,5-a]pyridin-4-yl)but-3-yn-2-ol] |
| 7.00 to 10.00 | 7.00 to 10.00 | CS(=O)(=O)Nc1ccc2cc(-c3cnn4ccnc(C5=CCC(C#N)CC5)c34)ccc2n1 (stereo not drawn) [Compound P-0151, N-(6-(4-(4-cyanocyclohex-1-ene-1-yl)pyrazolo[1,5-a]pyrazin-3-yl)quinolin-2-yl)methanesulfonamide] |
| 7.00 to 10.00 | 7.00 to 10.00 | CC(C)(O)Cn1cc(-c2ccc(-c3cnn4ccnc(C#CC(C)(C)C(N)=O)c34)cc2)cn1 [Compound P-0110, 4-(3-(4-(1-(2-hydroxy-2-methylpropyl)-1H-pyrazol-4-yl)phenyl)pyrazolo[1,5-a]pyrazin-4-yl)-2,2-dimethylbut-3-ynamide] |
| 7.00 to 10.00 | 7.00 to 10.00 | N#CC1CC=C(c2nccn3ncc(-c4ccc(-c5cnn(CC(F)F)c5)cc4)c23)CC1 (stereo not drawn) [Compound P-0029, 4-(3-(4-(1-(2,2-difluoroethyl)-1H-pyrazol-4-yl)phenyl)pyrazolo[1,5-a]pyrazin-4-yl)cyclohex-3-ene-1-carbonitrile] |
| 7.00 to 10.00 | 7.00 to 10.00 | N#CC1CCC(c2nccn3ncc(-c4ccc(-c5cnn(CCF)c5)cc4)c23)CC1 (stereo not drawn) [Compound P-0007, (1s,4s)-4-(3-(4-(1-(2-fluoroethyl)-1H-pyrazol-4-yl)phenyl)pyrazolo[1,5-a]pyrazin-4-yl)cyclohexane-1-carbonitrile] |
